Data from ChEMBL document CHEMBL5365438, “2-Substituted 1,5-benzothiazepine-based HDAC inhibitors exert anticancer activities on human solid and acute myeloid leukemia cell lines” (Bioorg Med Chem, 2023).
Calls of active or inactive are those of the source. The rule behind the calls is not given here.

Legend:
U-937 [1] = experiment: Induction of apoptosis in human U-937 cells assessed as increased p21 protein expression level at 1 to 5 uM incubated for 24 hrs by immunoblotting analysis; assay type: functional, cell-based; conditions: dose 1-5 µM
[2] = target: T1, Histone deacetylase (Homo sapiens) (UniProt Q13547+O15379+Q9UBN7+Q92769+Q9UQL6+Q8WUI4+Q9BY41+Q96DB2+P56524+Q9UKV0+Q969S8); experiment: Inhibition of HDAC in human HCT-116 cells assessed as upregulation of acetyl alpha-tubulin level at 1 to 5 uM incubated for 24 hrs by immunoblotting analysis; assay type: cell-based; conditions: dose 1-5 µM
HCT-116 [3] = experiment: Cytotoxicity against human HCT-116 cells assessed as reduction in cell death at 1 uM incubated for 24 hrs by PI staining based FACS analysis; assay type: functional
[4] = target: T1, Histone deacetylase (Homo sapiens); experiment: Inhibition of HDAC in human U-937 cells assessed as upregulation of acetyl alpha-tubulin level at 5 uM incubated for 24 hrs by immunoblotting analysis; assay type: cell-based
HCT-116 [5] = experiment: Cytotoxicity against human HCT-116 cells assessed as cell death at 5 uM incubated for 24 hrs by PI staining based FACS analysis relative to control; assay type: functional
HCT-116 [6] = experiment: Induction of apoptosis in human HCT-116 cells assessed as increased p21 protein expression level at 1 to 5 uM incubated for 24 hrs by immunoblotting analysis; assay type: functional, cell-based; conditions: dose 1-5 µM
Histone deacetylase = assay type: subcellular, Homo sapiens, Nucleus; conditions: hela
Description: Inhibition of HDAC in human HeLa cell nuclear extract using Kac fluorogenic peptide as substrate containing residues 379-382 of p53 by fluorescence assay

U-937 [7] = experiment: Induction of cell cycle arrest in human U-937 assessed as decrease accumulation of cells in G1 phase at 5 uM incubated for 24 hrs by FACS analysis; assay type: functional, cell-based
U-937 [8] = experiment: Cytotoxicity against human U-937 cells assessed as cell death at 1 to 5 uM incubated for 24 hrs by PI staining based FACS analysis relative to control; assay type: functional; conditions: dose 1-5 µM
U-937 [9] = experiment: Induction of cell cycle arrest in human U-937 assessed as increase accumulation of cells in G2/M phase at 1 to 5 uM incubated for 24 hrs by FACS analysis; assay type: functional, cell-based; conditions: dose 1-5 µM
U-937 [10] = experiment: Induction of cell cycle arrest in human U-937 assessed as reduced accumulation of cells in S phase at 1 uM incubated for 24 hrs by FACS analysis; assay type: functional, cell-based
HCT-116 [11] = experiment: Induction of cell cycle arrest in human HCT-116 assessed as accumulation of cells in G2/M phase at 1 to 5 uM incubated for 24 hrs by FACS analysis relative to SAHA; assay type: functional; conditions: dose 1-5 µM
[12] = target: T2, Protein deacetylase HDAC6 (Homo sapiens) (UniProt Q9UBN7); experiment: Inhibition of HDAC6 (unknown origin) at 10 uM using fluorogenic peptide as substrate pre-incubated for 15 mins followed by substrate addition incubated for 30 mins by fluorescence assay; conditions: time 45.0 min
T2 sequence (whole entry): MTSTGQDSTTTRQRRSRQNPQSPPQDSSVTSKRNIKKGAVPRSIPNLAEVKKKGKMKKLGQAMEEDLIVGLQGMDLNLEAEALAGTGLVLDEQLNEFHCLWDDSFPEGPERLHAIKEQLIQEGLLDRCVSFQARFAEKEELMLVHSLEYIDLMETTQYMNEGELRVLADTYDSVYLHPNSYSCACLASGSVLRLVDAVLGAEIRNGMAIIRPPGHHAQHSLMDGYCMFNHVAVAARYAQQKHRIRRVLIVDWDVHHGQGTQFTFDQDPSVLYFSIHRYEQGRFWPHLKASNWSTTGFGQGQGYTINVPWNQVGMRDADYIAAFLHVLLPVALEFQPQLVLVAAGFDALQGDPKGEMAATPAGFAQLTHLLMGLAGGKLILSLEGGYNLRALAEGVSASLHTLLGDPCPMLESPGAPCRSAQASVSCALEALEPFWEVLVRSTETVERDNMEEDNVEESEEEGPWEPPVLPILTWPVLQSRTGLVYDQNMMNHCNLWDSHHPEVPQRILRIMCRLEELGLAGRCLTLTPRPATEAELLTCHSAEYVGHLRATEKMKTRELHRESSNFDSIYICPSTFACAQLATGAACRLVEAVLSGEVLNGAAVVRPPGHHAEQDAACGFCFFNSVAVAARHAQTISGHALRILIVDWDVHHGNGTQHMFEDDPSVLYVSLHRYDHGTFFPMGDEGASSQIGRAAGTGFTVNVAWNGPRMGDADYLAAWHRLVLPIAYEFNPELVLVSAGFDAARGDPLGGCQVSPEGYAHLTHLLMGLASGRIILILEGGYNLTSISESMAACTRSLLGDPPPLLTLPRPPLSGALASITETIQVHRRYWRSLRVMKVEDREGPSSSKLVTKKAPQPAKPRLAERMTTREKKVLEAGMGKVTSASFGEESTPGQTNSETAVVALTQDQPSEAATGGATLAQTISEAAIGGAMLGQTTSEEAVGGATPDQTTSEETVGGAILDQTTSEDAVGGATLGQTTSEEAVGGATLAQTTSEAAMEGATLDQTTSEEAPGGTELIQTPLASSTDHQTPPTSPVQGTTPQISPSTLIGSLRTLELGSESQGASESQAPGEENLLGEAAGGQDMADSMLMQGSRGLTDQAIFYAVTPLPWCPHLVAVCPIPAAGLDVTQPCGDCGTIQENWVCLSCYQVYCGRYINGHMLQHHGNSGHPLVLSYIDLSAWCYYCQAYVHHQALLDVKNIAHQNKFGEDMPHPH

[13] = target: T1, Histone deacetylase (Homo sapiens); experiment: Inhibition of HDAC in human U-937 cells assessed as upregulation of histone H3 acetylation at lysine 14 residue at 5 uM incubated for 24 hrs by immunoblotting analysis; assay type: cell-based
U-937 [14] = experiment: Induction of cell cycle arrest in human U-937 assessed as decrease accumulation of cells in G1 phase at 1 to 5 uM incubated for 24 hrs by FACS analysis; assay type: functional, cell-based; conditions: dose 1-5 µM
U-937 [15] = experiment: Induction of cell cycle arrest in human U-937 assessed as decrease accumulation of cells in S phase at 1 to 5 uM incubated for 24 hrs by FACS analysis; assay type: functional, cell-based; conditions: dose 1-5 µM
Histone deacetylase 1 [16] = target: T3, Histone deacetylase 1 (Homo sapiens, UniProt Q13547); experiment: Inhibition of HDAC1 (unknown origin) using fluorogenic peptide as the substrate containing residues 379-382 of p53 pre-incubated for 15 mins followed by substrate addition incubated for 30 mins by multimode plate reader
HCT-116 [17] = experiment: Induction of cell cycle arrest in human HCT-116 assessed as decrease accumulation of cells in S phase at 1 to 5 uM incubated for 24 hrs by FACS analysis; assay type: functional, cell-based; conditions: dose 1-5 µM
Histone deacetylase 1 [18] = target: T3, Histone deacetylase 1; experiment: Inhibition of HDAC1 (unknown origin) at 10 uM using fluorogenic peptide as substrate pre-incubated for 15 mins followed by substrate addition incubated for 30 mins by fluorescence assay relative to control; conditions: time 45.0 min
[19] = target: T1, Histone deacetylase (Homo sapiens); experiment: Inhibition of HDAC in human HCT-116 cells assessed as upregulation of histone H3 acetylation at lysine 14 residue at 1 uM incubated for 24 hrs by immunoblotting analysis; assay type: cell-based
[20] = target: T1, Histone deacetylase (Homo sapiens); experiment: Inhibition of HDAC in human U-937 cells assessed as upregulation of histone H3 acetylation at lysine 14 residue at 1 uM incubated for 24 hrs by immunoblotting analysis; assay type: cell-based
HCT-116 [21] = experiment: Induction of cell cycle arrest in human HCT-116 assessed as decrease accumulation of cells in G1 phase at 1 to 5 uM incubated for 24 hrs by FACS analysis; assay type: functional, cell-based; conditions: dose 1-5 µM

T3 sequence (Q13547 whole entry, the tested form may be a part): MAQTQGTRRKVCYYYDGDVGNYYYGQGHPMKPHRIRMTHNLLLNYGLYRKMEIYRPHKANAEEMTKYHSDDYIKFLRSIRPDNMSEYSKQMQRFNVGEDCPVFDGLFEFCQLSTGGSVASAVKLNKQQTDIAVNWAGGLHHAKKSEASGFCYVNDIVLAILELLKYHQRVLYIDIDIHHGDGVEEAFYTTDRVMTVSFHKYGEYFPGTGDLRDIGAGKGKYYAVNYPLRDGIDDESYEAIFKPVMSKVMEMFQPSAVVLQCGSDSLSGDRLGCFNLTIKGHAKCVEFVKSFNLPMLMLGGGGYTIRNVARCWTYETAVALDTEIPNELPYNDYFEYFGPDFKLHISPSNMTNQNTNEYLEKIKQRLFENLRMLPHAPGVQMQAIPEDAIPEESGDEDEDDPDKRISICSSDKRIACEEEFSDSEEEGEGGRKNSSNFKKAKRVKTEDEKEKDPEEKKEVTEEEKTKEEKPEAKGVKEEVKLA

| SMILES | Activity (U-937 [1]) | Activity [2] | Activity (HCT-116 [3]) | Activity [4] | Activity (HCT-116 [5]) [%] | Activity (HCT-116 [6]) | IC50 (Histone deacetylase) [nM] | Activity (U-937 [7]) | Activity (U-937 [8]) | Activity (U-937 [9]) | Activity (U-937 [10]) | Activity (HCT-116 [11]) | inhibition [12] [%] | Activity [13] | Activity (U-937 [14]) | Activity (U-937 [15]) | IC50 (Histone deacetylase 1 [16]) [nM] | Activity (HCT-116 [17]) | inhibition (Histone deacetylase 1 [18]) [%] | Activity [20] | further results |
| --- | --- | --- | --- | --- | --- | --- | --- | --- | --- | --- | --- | --- | --- | --- | --- | --- | --- | --- | --- | --- | --- |
| O=C(CCCCCN1C(=O)C[C@H](c2ccc(Cl)c(Cl)c2)Sc2ccccc21)NO | Active | Active | Active | Active | 22 | Active | 274.4 | Active | Active | Active | Active | Active | – | – | – | – | – | – | – | – | – |
| O=C(CCCCCCC(=O)Nc1ccc([C@H]2O[C@@H](CSc3nc(-c4ccccc4)c(-c4ccccc4)o3)C[C@@H](c3ccc(CO)cc3)O2)cc1)NO | – | – | – | – | – | – | – | – | – | – | – | – | 94.3 | – | – | – | – | – | – | – | – |
| Cc1ccc(C2CC(=O)N(CCCCCC(=O)NO)c3ccccc3S2)cc1 (racemic) | Active | Active | Active | Active | 22 | Active | 123.4 | Active | Active | Active | Active | Active | – | Active | – | – | – | – | – | – | – |
| Cc1ccc(C2CC(=O)N(CCCCCC(=O)NO)c3ccccc3S2(=O)=O)cc1 (racemic) | Active | Active | – | Active | – | Active | 42.2 | – | ~6% | Active | – | Active | 98.6 | Active | Active | Active | 175 | Active | 93.5 | Active | Activity [19]: Active; Activity (HCT-116 [21]): Active |
| O=C(CCCCCN1C(=O)CC(c2c3ccccc3cc3ccccc23)Sc2ccccc21)NO (racemic) | Active | Active | Active | Active | 22 | Active | 246 | Active | Active | Active | Active | Active | – | Active | – | – | – | – | – | – | – |
| O=C(CCCCCN1C(=O)CC(c2ccccc2Cl)Sc2ccccc21)NO (racemic) | Active | Active | Active | Active | 22 | Active | 109.4 | Active | Active | Active | Active | Active | – | Active | – | – | – | – | – | – | – |
| O=C(CCCCCN1C(=O)CC(c2ccccc2Cl)S(=O)(=O)c2ccccc21)NO (racemic) | Active | Active | – | Active | – | Active | 40.6 | – | ~6% | Active | – | Active | 99.4 | Active | Active | Active | 270 | Active | 92.6 | Active | Activity [19]: Active; Activity (HCT-116 [21]): Active |
| O=C(CCCCCN1C(=O)CC(c2cccc3ccccc23)Sc2ccccc21)NO (racemic) | Active | Active | Active | Active | 22 | Active | 259.3 | Active | Active | Active | Active | Active | – | Active | – | – | – | – | – | Active | – |
| O=C(CCCCCN1C(=O)CC(c2cccc3ccccc23)S(=O)(=O)c2ccccc21)NO (racemic) | Active | Active | – | Active | – | Active | 77.9 | – | ~6% | Active | – | Active | 99.3 | Active | Active | Active | 378 | Active | 80.9 | Active | Activity [19]: Active; Activity (HCT-116 [21]): Active |
| COc1ccc(C2CC(=O)N(CCCCCC(=O)NO)c3ccccc3S2)cc1 (racemic) | Active | Active | Active | Active | 22 | Active | 118.3 | Active | Active | Active | Active | ~75% | – | Active | – | – | – | – | – | – | – |
| COc1ccc(C2CC(=O)N(CCCCCC(=O)NO)c3ccccc3S2(=O)=O)cc1 (racemic) | Active | Active | – | Active | – | Active | 114.6 | – | ~6% | Active | – | Active | 95.8 | Active | Active | Active | 248 | Active | 94.2 | Active | Activity [19]: Active; Activity (HCT-116 [21]): Active |
